Reference: PubChem BioAssay (NCI)
“And” between values parts separate entries of the source, which are not always exact repeats. Identical values can stand only once.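 Each compound was tested at five concentrations against cells in 96-well plates for 48 hours. Here, GI50 denotes the concentration required for 50% inhibition of growth. TGI is the concentration that stops growth completely.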

What was measured:
Assay in all cases: growth of human tumour cells (NCI), 48 h
[1] = system: SN12C renal
[2] = system: HCT-116 colon
[3] = system: SF-295 CNS
[4] = system: UACC-257 melanoma
[5] = system: MDA-MB-435
[6] = system: CCRF-CEM leukemia
[7] = system: TK-10 renal
[8] = system: RXF 393 renal
[9] = system: SF-539 CNS
[10] = system: K-562 leukemia

Compound | GI50 [1] | TGI [1] | GI50 [2] | TGI [2] | GI50 [3] | TGI [3] | GI50 [4] | TGI [4] | GI50 [5] | TGI [5] | GI50 [6] | TGI [6] | GI50 [7] | TGI [7] | GI50 [8] | TGI [8] | GI50 [9] | TGI [9] | GI50 [10] | TGI [10]
CC1=C([Se]CC(OC(=O)[C@@H](CO)NC(=O)OC(C)(C)C)C(=O)NC(C)(C)C)C(=O)c2ccccc2C1=O (stereo partly drawn) | 1.85 µM | 3.41 µM | 1.46 µM | 2.79 µM | 0.316 µM | 1.06 µM | 1.74 µM | 3.23 µM | 2.01 µM | 4.1 µM | 0.525 µM | > 100 µM | 1.98 µM | 3.44 µM | 1.86 µM | 3.28 µM | 1.57 µM | 3.05 µM | – | –
CC[C@H](C)n1cc(C)c2c(C(=O)NCc3c(C)cc(C)[nH]c3=O)cc(-c3ccc(N4CCNCC4)nc3)cc21 | 13.8 µM and 13.7 µM | 27.9 µM and 28.6 µM | 10.1 µM and 9.6 µM | 21.6 µM and 22.1 µM | 16.2 µM and 14.8 µM | 31.9 µM and 29.3 µM | 16.5 µM and 14.8 µM | 31.5 µM and 29.5 µM | 10 µM and 5.12 µM | 21.6 µM and 16.3 µM | 18 µM and 11.1 µM | 35.9 µM and 26.3 µM | 15.4 µM | 29.7 µM | 9 µM and 7.71 µM | 23.7 µM and 23.2 µM | 15.1 µM and 13 µM | 28.5 µM and 26.7 µM | 2.87 µM and 3.2 µM | 8.09 µM and 10.9 µM
N#Cc1c(-c2ccccc2)cc(-c2ccccc2)n(CCCCC(=O)NO)c1=O | 2.95 µM | 11.5 µM | 2.37 µM | 10.1 µM | 2.13 µM | 4.56 µM | 2.15 µM | 12.4 µM | 2.4 µM | 11.5 µM | 1.68 µM | 6.45 µM | 2.5 µM | 11.2 µM | 1.43 µM | 3.36 µM | 2.51 µM | 10.4 µM | 2.1 µM | 12.4 µM
COc1ccc(-c2cc(/C=C3\C(=O)Nc4ccc(OC)cc43)[nH]n2)cc1 | > 100 µM | > 100 µM | 9.08 µM | > 100 µM | 2.89 µM | > 100 µM | > 100 µM | > 100 µM | 0.317 µM | 26.1 µM | > 100 µM | > 100 µM | > 100 µM | > 100 µM | 55 µM | > 100 µM | 6.67 µM | > 100 µM | 0.479 µM | > 100 µM
O=c1[nH]c(SCc2c(Cl)c(Cl)c(Cl)c(Cl)c2Cl)nc(=S)[nH]1 | – | > 100 µM | – | > 100 µM | – | > 100 µM | – | > 100 µM | – | > 100 µM | – | 36.9 µM | – | > 100 µM | – | 35.5 µM | – | > 100 µM | – | 45.9 µM
N#Cc1cccc(NC(=O)c2oc3ccccc3c2-c2cnn(-c3ccccc3)c2)c1 | > 500 µM | > 500 µM | > 500 µM | > 500 µM | 430 µM | > 500 µM | > 500 µM | > 500 µM | > 500 µM | > 500 µM | > 500 µM | > 500 µM | 317 µM | > 500 µM | 185 µM | > 500 µM | 137 µM | > 500 µM | > 500 µM | > 500 µM
N#CN1CCC[C@H]1C(=O)N1CCc2c(-c3[nH]nc4ncccc34)cccc21 | < 0.01 µM | 48.2 µM | < 0.01 µM | 8.14 µM | 0.281 µM | 4.41 µM | < 0.01 µM | 14.5 µM | < 0.01 µM | < 0.01 µM | < 0.01 µM | 28.4 µM | 0.525 µM | 4.17 µM | < 0.01 µM | 0.145 µM | < 0.01 µM | < 0.01 µM | < 0.01 µM | > 37.8 µM
CC(=O)OCC1OC(OC2=C(CC=C(Cl)Cl)C(=O)c3ccccc3C2=O)C(OC(C)=O)C(OC(C)=O)C1OC(C)=O (stereo not drawn) | 5.62 µM | 18.7 µM | 1.74 µM | 3.92 µM | 16.3 µM | 31.4 µM | 8.45 µM | 21.4 µM | 4.38 µM | 16 µM | 0.894 µM | > 100 µM | 9.61 µM | 21.5 µM | 2.53 µM | 8.01 µM | 4.09 µM | 14.6 µM | 1.06 µM | > 100 µM
CCOC(=O)C1=C(C)NC2SC(=O)/C(=C\c3ccccc3)N2C1c1ccccc1 (stereo not drawn) | > 100 µM | > 100 µM | 67.5 µM | > 100 µM | > 100 µM | > 100 µM | > 100 µM | > 100 µM | > 100 µM | > 100 µM | 14.8 µM | > 100 µM | 56.2 µM | > 100 µM | > 100 µM | > 100 µM | > 100 µM | > 100 µM | 51.8 µM | > 100 µM
C=C1C(=O)O[C@@H]2C[C@@H]1CC[C@@]1(C)O[C@@H]1CC[C@@]1(C)O[C@@H]1CC[C@@]2(C)O | 16.1 µM | 40.1 µM | 16.4 µM | 32 µM | 19.6 µM | 60.6 µM | 43.6 µM | > 100 µM | 17.4 µM | 68.4 µM | 28.1 µM | > 100 µM | 23.4 µM | 67.6 µM | 42.8 µM | > 100 µM | 26.7 µM | 75.9 µM | > 100 µM | > 100 µM
CCOC(=O)C1=C(C)NC(=O)NC1c1coc2cc(C)cc(C)c2c1=O (stereo not drawn) | – | > 100 µM | – | > 100 µM | – | > 100 µM | – | > 100 µM | – | 45.4 µM | – | > 100 µM | – | > 100 µM | – | > 100 µM | – | > 100 µM | – | > 100 µM
COc1ccc2c(=O)c3cc([N+](=O)[O-])ccc3n(C)c2c1 | – | > 100 µM | – | – | – | > 100 µM | – | > 100 µM | – | > 100 µM | – | > 100 µM | – | > 100 µM | – | > 100 µM | – | > 100 µM | – | > 100 µM
CCN(CC)C(=S)SC1CCOP(=O)(N(CCCl)CCCl)N1C (stereo not drawn) | – | 46 µM | – | > 48.5 µM | – | > 100 µM | – | > 56.1 µM | – | > 100 µM | – | 43.1 µM | – | > 100 µM | – | 76.1 µM | – | 56.6 µM | – | 49.9 µM
COc1cc([C@@H]2c3cc4c(cc3[C@H](O)[C@H]3COC(=O)[C@H]23)OCO4)cc(OC)c1OC | < 0.005 µM | > 100 µM and 35 µM | < 0.01 µM | 0.5 µM | < 0.01 µM | – | – | > 100 µM and 50 µM | < 0.01 µM | < 0.005 µM | < 0.01 µM | – | < 0.005 µM | > 100 µM and 50 µM | < 0.01 µM | – | < 0.01 µM | < 0.005 µM | < 0.01 µM | > 100 µM and 50 µM
